From patent US10344330B2, “Glatiramer acetate response biomarker mRNA potency assay” (Mylan Inc., priority 2013, dated 2019)
Values joined by “and” are separate entries in the source; they are usually repeats but may differ in a detail not shown here. Equal entries are not always repeated.

How the values were obtained:
[1] = tested on: mouse IL-2 mRNA in primary LN cells; test: Mouse IL-2 mRNA in LN cells of Copaxone P53974-immunized CSJLF1/JRj mice stimulated with twelve GA lots (Example VIII); type: cell-based
Description: (§1) A real-time polymerase chain reaction method was used to measure the expression of IL-2, IL-4, IL-5, and IL-13 mRNA in LN cells, from GA-immunized mice, following stimulation with one of twelve GA lots. One lot of GA (Copaxone P53974) was used for immunization. […] Twenty female CSJLF1/JRj mice (Janvier Labs), approximately 8-12 weeks of age, were immunized by injection of 0.1 mL injection volume into four footpads (about 10 μL into each of the front footpad, 40 μL into each of the hind footpad) on Day 0. […] Samples were prepared using TaqMan Universal PCR Master Mix II (Life Technologies) and run in 96-well plates using a Real-Time PCR system (7500, Life Technologies) using the following RT-PCR program: The levels of cytokine mRNA were calculated using a standard ΔΔCT method as described previously.

[2] = tested on: mouse IL-17 mRNA in primary LN cells; test: Mouse IL-17 mRNA in LN cells of Copaxone P53974-immunized CSJLF1/JRj mice stimulated with GA lots (Example VIII); type: cell-based; conditions: stimulation conc. 2.5 μg/mL; for IL-17 mRNA/B-Actin Fold Change: normalized to B-Actin; for IL-17 mRNA/GAPDH Fold Change: normalized to GAPDH
Description: [The procedure below names another target; the source lists this target under the same test.] as §1

mIL-2 mRNA in LN cells = mIL-2 mRNA in LN cells of Copaxone P53974-immunized CSJLF1/JRj mice, three identical experiments, GAPDH and β-actin reference (Example VII); type: cell-based, mouse; conditions: 2.5 μg/mL, 6 hours
Description: (§2) A real-time polymerase chain reaction method was used to measure the expression of IL-2, IL-4, IL-5, and IL-13 mRNA in GA-stimulated LN cells from GA-immunized mice. Three identical experiments were carried out. In each experiment, mice were immunized with GA, and LN cells from each group of mice were stimulated with each of six concentrations of the same batch of GA used for immunization. GAPDH and β-actin were used as reference genes.
(§3) Each of the three groups consisted of four female CSJLF1/JRj (Janvier Labs) mice, approximately 8-12 weeks of age. On Day 0, mice were immunized by injection of 0.1 mL injection volume into four footpads (about 10 μL into each of the front footpad, 40 μL into each of the hind footpad). The immunization contained a total dose of 250 μg of one lot of GA (Copaxone batch P53974)+CFA (0.5 mg/mL). On Day 10 post-immunization, lymph cells were isolated from animals and stimulated with enriched DCCM-1 (mock-stimulated vehicle control), 2.5 μg/mL Concanavalin A (ConA, a positive control) or GA.
(§4) Ten days following immunization, LN cell samples isolated from the immunized mice each were stimulated with 0.3, 1, 2.5, 5, 10, or 20 μg/mL of Copaxone batch P53974 as shown in Table 43.
(§5) Total RNA was isolated from stimulated LN cells after 6 hours of incubation at about 37° C. in a humidified CO2 incubator, using the SV 96 Total RNA Isolation System according to the manufacturer's protocol (Promega, Cat. #Z3500). cDNA was synthesized from each RNA sample in triplicate using High Capacity cDNA Reverse Transcription Kit (Life Technologies, formerly Applied Biosystems) according to the manufacturer's protocol.
(§6) Samples were prepared using TaqMan Universal PCR Master Mix II (Life Technologies) and run in 96-well plates using a Real-Time PCR system (7500, Life Technologies) using the following program for Real-Time PCR:
(§7) The levels of cytokine mRNA were calculated using a standard ΔΔCT method as described previously.

mIL-13 mRNA in LN cells = mIL-13 mRNA in LN cells of Copaxone P53974-immunized CSJLF1/JRj mice, three identical experiments (Example VII); type: cell-based, mouse; conditions: 2.5 μg/mL, 6 hours
Description: as §2, §3, §4, §5, §6, §7

mIL-4 mRNA in LN cells = mIL-4 mRNA in LN cells of Copaxone P53974-immunized CSJLF1/JRj mice, three identical experiments (Example VII); type: cell-based, mouse; conditions: 2.5 μg/mL, 6 hours
Description: as §2, §3, §4, §5, §6, §7

[3] = tested on: mouse IL-13 mRNA in primary LN cells; test: Mouse IL-13 mRNA in LN cells of Copaxone P53974-immunized CSJLF1/JRj mice stimulated with twelve GA lots (Example VIII); type: cell-based; conditions: stimulation conc. 2.5 μg/mL; normalized to B-Actin
Description: as §1

mIL-5 mRNA in LN cells = mIL-5 mRNA in LN cells of Copaxone P53974-immunized CSJLF1/JRj mice, three identical experiments (Example VII); type: cell-based, mouse; conditions: 2.5 μg/mL, 6 hours
Description: as §2, §3, §4, §5, §6, §7

[4] = tested on: mouse IL-5 mRNA in primary LN cells; test: Mouse IL-5 mRNA in LN cells of Copaxone P53974-immunized CSJLF1/JRj mice stimulated with twelve GA lots (Example VIII); type: cell-based; conditions: stimulation conc. 2.5 μg/mL; for IL-5 mRNA/GAPDH Fold Change: normalized to GAPDH
Description: as §1

[5] = tested on: mouse CD25 (IL-2ra) mRNA in primary LN cells; test: Mouse CD25 mRNA in LN cells of Copaxone P53974-immunized CSJLF1/JRj mice stimulated with GA lots (Example VIII); type: cell-based; conditions: stimulation conc. 2.5 μg/mL, relative to DCCM1 medium control
Description: [The procedure below names another target; the source lists this target under the same test.] as §1

secreted IL-2 = test: Secreted IL-2 from treated LN cells (other experiments, data not shown); type: cell-based, mouse; conditions: increasing concentrations
Source text: This dose-dependent response was consistent for both test and reference compounds independent of whether Copaxone® or Mylan GMA was used as the immunizing antigen.

[6] = Plate 1, positive control 2.5 μg/mL listed in the C1 section
[7] = Plate 1, positive control 2.5 μg/mL listed in the C2 section
[8] = Plate 1, positive control 2.5 μg/mL listed in the C3 section
[9] = relative to DCCM1 medium control

## Concanavalin A [ConA, reference compound]
[1]; [6]
  IL-2 mRNA/B-Actin Fold Change: 118.1 fold
  IL-2 mRNA/GAPDH Fold Change: 116.9 fold
[1]; [7]
  IL-2 mRNA/B-Actin Fold Change: 111.2 fold
  IL-2 mRNA/GAPDH Fold Change: 103.7 fold
[1]; [8]
  IL-2 mRNA/B-Actin Fold Change: 105.2 fold
  IL-2 mRNA/GAPDH Fold Change: 87.6 fold
[1]; stimulation conc. 2.5 μg/mL, normalized to B-Actin
  IL-2 mRNA/B-Actin Fold Change: 109.3 fold and 120.1 fold and 75.2 fold and 81.3 fold and 103.6 fold and 101.9 fold and 92.2 fold and 98.9 fold
[1]; stimulation conc. 2.5 μg/mL, normalized to B-Actin, ΔΔCT
  IL-2 mRNA/B-Actin Fold Change: 106.7 fold and 96.2 fold and 103.1 fold and 120.5 fold and 121.8 fold
[1]; stimulation conc. 2.5 μg/mL, normalized to GAPDH
  IL-2 mRNA/GAPDH Fold Change: 103.2 fold and 111.7 fold and 82.0 fold and 84.8 fold and 158.0 fold and 127.7 fold and 102.6 fold and 127.5 fold
[1]; stimulation conc. 2.5 μg/mL, normalized to GAPDH, ΔΔCT
  IL-2 mRNA/GAPDH Fold Change: 100.3 fold and 92.7 fold and 99.8 fold and 147.4 fold and 131.3 fold
[2]
  IL-17 mRNA/B-Actin Fold Change: 133.2 fold and 224.2 fold and 128.3 fold and 204.1 fold
  IL-17 mRNA/GAPDH Fold Change: 125.8 fold and 208.6 fold and 139.9 fold and 213.0 fold
[2]; [9]
  IL-17 mRNA/B-Actin Fold Change: 67.2 and 83.0 and 70.9 and 64.8
  IL-17 mRNA/GAPDH Fold Change: 102.6 and 104.0 and 78.8 and 83.6
mIL-2 mRNA in LN cells; Group 1
  IL-2 mRNA/Actβ Fold Change: 157.7 fold
  IL-2 mRNA/GAPDH Fold Change: 102.9 fold
mIL-2 mRNA in LN cells; Group 2
  IL-2 mRNA/Actβ Fold Change: 137.4 fold
  IL-2 mRNA/GAPDH Fold Change: 122.2 fold
mIL-2 mRNA in LN cells; Group 3
  IL-2 mRNA/Actβ Fold Change: 91.7 fold
  IL-2 mRNA/GAPDH Fold Change: 55.8 fold
mIL-13 mRNA in LN cells; Group 1
  IL-13 mRNA/Actβ Fold Change: 33.3 fold
  IL-13 mRNA/GAPDH Fold Change: 24.1 fold
mIL-13 mRNA in LN cells; Group 2
  IL-13 mRNA/Actβ Fold Change: 28.4 fold
  IL-13 mRNA/GAPDH Fold Change: 23.8 fold
mIL-13 mRNA in LN cells; Group 3
  IL-13 mRNA/Actβ Fold Change: 25.7 fold
  IL-13 mRNA/GAPDH Fold Change: 17.8 fold
mIL-4 mRNA in LN cells; Group 1
  IL-4 mRNA/Actβ Fold Change: 54.5 fold
  IL-4 mRNA/GAPDH Fold Change: 35.6 fold
mIL-4 mRNA in LN cells; Group 2
  IL-4 mRNA/Actβ Fold Change: 38.5 fold
  IL-4 mRNA/GAPDH Fold Change: 34.2 fold
mIL-4 mRNA in LN cells; Group 3
  IL-4 mRNA/Actβ Fold Change: 35.7 fold
  IL-4 mRNA/GAPDH Fold Change: 21.8 fold
[3]
  IL-13 mRNA/B-Actin Fold Change: 29.3 fold
mIL-5 mRNA in LN cells; Group 1
  IL-5 mRNA/Actβ Fold Change: 16.6 fold
  IL-5 mRNA/GAPDH Fold Change: 12.0 fold
mIL-5 mRNA in LN cells; Group 2
  IL-5 mRNA/Actβ Fold Change: 25.4 fold
  IL-5 mRNA/GAPDH Fold Change: 21.4 fold
mIL-5 mRNA in LN cells; Group 3
  IL-5 mRNA/Actβ Fold Change: 12.4 fold
  IL-5 mRNA/GAPDH Fold Change: 8.6 fold
[4]; normalized to B-Actin
  IL-5 mRNA/B-Actin Fold Change: 23.6 fold and 20.9 fold and 21.3 fold and 21.4 fold
[4]
  IL-5 mRNA/GAPDH Fold Change: 23.6 fold and 20.0 fold and 20.6 fold and 22.3 fold
[4]; ΔΔCT
  IL-5 mRNA/GAPDH Fold Change: 25.7 fold and 32.7 fold and 22.2 fold and 20.8 fold and 26.0 fold and 25.2 fold and 30.3 fold and 29.3 fold
[5]; normalized to B-Actin
  CD25 mRNA/B-Actin Fold Change: 4.1 and 5.6 and 4.7 and 5.2 and 5.0 and 5.1
[5]; normalized to GAPDH
  CD25 mRNA/GAPDH Fold Change: 3.6 and 4.4 and 4.5 and 5.6 and 4.8 and 4.6 and 4.7

## L-glutamic acid polymer with L-alanine, L-lysine and L-tyrosine, acetate (salt) [GA]
Secreted IL-2
  secreted IL-2 from treated cells: increased in dose-dependent fashion
